Columns and labels:
SH-SY5Y [1] = test: Percent increase against SH-SY5Y human neuroblastoma cell viability induced by hydrogen peroxide at 2 uM concentration; assay type: functional
[2] = Free radical scavenging activity of DPPH was determined
SH-SY5Y [3] = test: Percent increase against SH-SY5Y human neuroblastoma cell viability induced by hydrogen peroxide at 10 uM concentration; assay type: functional
SH-SY5Y [4] = test: Percent increase against SH-SY5Y human neuroblastoma cell viability induced by hydrogen peroxide at 50 uM concentration; assay type: functional

| SMILES | IC50 [2] | Increase (SH-SY5Y [1]) | Increase (SH-SY5Y [3]) | Increase (SH-SY5Y [4]) |
| --- | --- | --- | --- | --- |
| O=c1cc(-c2ccc(O)c(O)c2)oc2cc(O)cc(O)c12 [LUTEOLIN] | 10.4 µM | 76.4% | 84% | 77.5% |
| COc1c(O)cc(O)c2c(=O)cc(-c3ccccc3)oc12 [WOGONIN] | > 100 µM | – | – | – |

Further lines, with some results ahead:

| IC50 [2] | SMILES | Increase (SH-SY5Y [1]) | Increase (SH-SY5Y [3]) | Increase (SH-SY5Y [4]) |
| --- | --- | --- | --- | --- |
| > 100 µM | O=c1cc(-c2ccc(O)cc2)oc2cc(O)cc(O)c12 [APIGENIN] | 24.6% | 52.4% | 63.7% |
| > 100 µM | O=c1cc(-c2ccccc2)oc2cc(O)cc(O)c12 [CHRYSIN] | – | – | – |
| 26.5 µM | O=C1O[C@H]([C@@H](O)CO)C(O)=C1O [ASCORBIC ACID] | – | – | – |
